The values that follow come from ChEMBL document CHEMBL1122334, “New azacannabinoids highly active in the central nervous system” (1983).

As a reminder, the ED50 is the dose that gives a 50% effect, or the effect in half of the subjects. A higher ED50 goes with weaker potency.

What all share (assay type): functional
The subject of assay [1] is Rattus norvegicus. As to the kind of experiment: The compound was tested for hyperexcitability in rat at a dose of 20 mg/Kg.
Assay [2] deals with Rattus norvegicus. Briefly: The compound was tested for methamphetamine antagonism in rat at a dose of 20 mg/Kg.
Assay [3] deals with Mus musculus. As to the kind of experiment: The compound was tested for activity to decrease fighting in mouse at a dose of 20 mg/Kg.
In assay [4] the test system is Rattus norvegicus. As to the kind of experiment: The compound was tested for decreasing motor activity in rat. at a dose of 5 mg/Kg.
Assay [5] relates to Mus musculus. Briefly: The compound was tested for activity to decrease fighting in mouse at a dose of 5 mg/Kg.
Assay [6] relates to Rattus norvegicus. As to the kind of experiment: The compound was tested for hyperexcitability in rat at a dose of 5 mg/Kg.
The test system of assay [7] is Rattus norvegicus. Briefly: The compound was tested for serotonin antagonism in rat at a dose of 5 mg/Kg.
For assay [8], the system named is Mus musculus. As to the kind of experiment: The compound was tested for analgesic activity using writhing (W) test in mouse at a dose of 10 mg/Kg.
For assay [9], the system named is Rattus norvegicus. As to the kind of experiment: The compound was tested for hyperexcitability in rat at a dose of 80 mg/Kg.
Assay [10] deals with Rattus norvegicus. As to the kind of experiment: The compound was tested for serotonin antagonism in rat at a dose of 20 mg/Kg.
In assay [11] the test system is Rattus norvegicus. As to the kind of experiment: The compound was tested for methamphetamine antagonism in rat at a dose of 80 mg/Kg.
The subject of assay [12] is Rattus norvegicus. Briefly: The compound was tested for serotonin antagonism in rat at a dose of 80 mg/Kg.
For assay [13], the system named is Rattus norvegicus. As to the kind of experiment: The compound was tested for decreasing motor activity in rat at a dose of 20 mg/Kg.
The subject of assay [14] is Rattus norvegicus. As to the kind of experiment: The compound was tested for methamphetamine antagonism in rat at a dose of 5 mg/Kg.
Assay [15] relates to Rattus norvegicus. As to the kind of experiment: The compound was tested for decreasing motor activity in rat at a dose of 80 mg/Kg.
For assay [16], the species on record is Mus musculus. As to the kind of experiment: The compound was tested for analgesic activity using writhing (W) test in mouse.
Assay [17] relates to Rattus norvegicus. As to the kind of experiment: The compound was tested for decreasing motor activity in rat at a dose of 1 mg/Kg.
Assay [18] relates to Rattus norvegicus. As to the kind of experiment: The compound was tested for decreasing motor activity in rat at a dose of 4 mg/Kg.
The species entered for assay [19] is Rattus norvegicus. As to the kind of experiment: The compound was tested for analgesic activity using (RTF) tail-flick test in rat.
For assay [20], the system named is Mus musculus. As to the kind of experiment: The compound was tested for activity to decrease fighting in mouse at a dose of 10 mg/Kg.
The test system of assay [21] is Rattus norvegicus. Briefly: The compound was tested for decreasing motor activity in rat at a dose of 5 mg/Kg.
The test system of assay [22] is Rattus norvegicus. As to the kind of experiment: The compound was tested for decreasing motor activity in rat at a dose of 10 mg/Kg.

On to `CC(CCCc1ccc(F)cc1)c1cc(O)c2c(c1)OC(C)(C)C1=C2CN(CC(=O)N(C)C)CC1` (stereo not drawn), for which the values for the Possible response in assay [1], in assay [6] and in assay [9] were 10%, 0% and 69%, respectively. Also, the Decrease in activity amounted to 34% in [2]; 0% in assay [4]; 11% in [7]; 12% in [10]; 54% in assay [11]; 55% in [12]. In addition, the Decrease in activity in assay [13] is recorded as 27%; in assay [14], -35%; in assay [15], 68%. Besides, the Decrease in fighting in assay [3] was 12%; in assay [5], 3%. This compound also returned an increase in response in assay [8] of 24%.
Turning to `C#CCN1CCC2=C(C1)c1c(O)cc(C(C)CCCc3ccc(F)cc3)cc1OC2(C)C` (stereo not drawn), the Possible response in assay [1] is reported as 100%; in assay [6], 60%. Moreover, the Decrease in activity stood at 34% in assay [2]; 84% in assay [11]; 60% in assay [17]; 77% in assay [18]; 8% in [14]. Also, the Decrease in fighting is given as -29% in [5] and 47% in assay [20]. Moreover, the results for the ED50 in [16] and in assay [19] were 5.3 mg/kg and 3.7 mg/kg, respectively.
In the case of `CCCCCC(C)C(C)c1cc(O)c2c(c1)OC(C)(C)C1=C2CN(CC(=O)NC(=O)Nc2ccccc2)CC1` (stereo not drawn), the Possible response in [1], in [6] and in assay [9] was 0% throughout. Moreover, the Decrease in activity is -24% in [2]; -56% in assay [7]; -15% in assay [10]; -28% in assay [11]; -17% in [12]; 42% in assay [13]. Besides, the Decrease in activity in assay [21] is recorded as 37%; in assay [14], -37%; in [15], 51%.
For the compound `CC(CCCc1ccc(F)cc1)c1cc(O)c2c(c1)OC(C)(C)C1=C2CN(CC(=O)NCC(N)=O)CC1` (stereo not drawn), the Possible response in assay [1], in assay [6] and in assay [9] was 0% in each case. The Decrease in activity is 2% in assay [2]; -17% in assay [7]; -10% in assay [10]; 25% in assay [11]; 26% in assay [12]; 12% in assay [13]. Besides, the Decrease in activity in assay [21] is given as -11%; in [14] it was 1%; in assay [15], 9%.
For `CNC(=O)CN1CCC2=C(C1)c1c(O)cc(C(C)CCCc3ccc(F)cc3)cc1OC2(C)C` (stereo not drawn), the Possible response in [1] was found to be 100%; in assay [6], 92%; in assay [9] it was 100%. Moreover, the Decrease in activity in assay [2] stood at 63%; in [4], 73%; in assay [7], 6%; in assay [10], 63%; in assay [11], 73%; in assay [12] it was 92%. The Decrease in activity was 66% in assay [13], 51% in assay [14] and 94% in [15]. The Decrease in fighting in assay [3] is 93%; in [5] it was 56%. Also, in assay [8], the increase in response was 71%.
In the case of `CCCCCC(C)C(C)c1cc(O)c2c(c1)OC(C)(C)C1=C2CN(CCC(N)=O)CC1` (stereo not drawn), the Possible response is on record as 0% in assay [1], 0% in [6] and 67% in [9]. Also, the Decrease in activity was 17% in assay [2]; 49% in [4]; -73% in assay [7]; -13% in [10]; 13% in assay [11]; -71% in assay [12]. The results for the Decrease in activity in assay [13], in assay [14] and in [15] were 65%, -4% and 83%, respectively. Also, the increase in response in [8] is 0%.
For `CCCCCC(C)C(C)c1cc(O)c2c(c1)OC(C)(C)C1=C2CN(CC(=O)NC(=O)NC)CC1` (stereo not drawn), the Possible response is 71% in assay [1], 35% in assay [6] and 81% in assay [9]. The Decrease in activity in [2] was found to be 66%; in assay [7], 34%; in assay [10], 50%; in [11], 54%; in assay [12] it was 89%; in [13], 68%. In addition, the values for the Decrease in activity in [21], in assay [14] and in assay [15] were 63%, 38% and 88%, respectively.
With `CCCCCC(C)C(C)c1cc(O)c2c(c1)OC(C)(C)C1=C2CN(CC(=O)Nc2ccccc2)CC1` (stereo not drawn), the Possible response in [1], in assay [6] and in assay [9] was 0% throughout. Further, the Decrease in activity is 15% in [2]; 3% in assay [7]; -28% in [10]; -9% in [11]; -13% in assay [12]; 18% in [13]. Moreover, the results for the Decrease in activity in assay [21], in assay [14] and in [15] were 4%, 0% and 6%, respectively. Also, the increase in response in assay [8] turned out to be 12%.
For the compound `CCCCCC(C)C(C)c1cc(O)c2c(c1)OC(C)(C)C1=C2CN(C(C)C(=O)NC(N)=O)CC1` (stereo not drawn), the Possible response in assay [1] amounted to 63%; in assay [6], 50%; in [9], 77%. For the same compound, the Decrease in activity is 50% in [2]; 11% in assay [7]; 43% in [10]; 81% in assay [11]; 98% in [12]; 67% in [13]. Further, the Decrease in activity in assay [21] was 67%; in [14], 47%; in [15] it was 83%.
Consider `CCCCCc1cc(O)c2c(c1)OC(C)(C)[C@@H]1CCC(C)=C[C@@H]21` [DRONABINOL], for which the results for the Decrease in activity in assay [22], in assay [13] and in assay [21] were 41%, 72% and 15%, respectively. In addition, the Possible response in assay [1] worked out at 100%; in [6], 29%. Moreover, the Decrease in fighting in assay [5] was determined as 36%. For the same compound, the 50% effective dose (ED50) in assay [16] was 43 mg/kg; in assay [19], 27 mg/kg.
